For this assay, the target named is T1, estrogen receptor alpha (ESR1) in MCF7 breast cancer cells (Homo sapiens, UniProt P03372).
T1 construct: endogenous in cells; host or cells: MCF7 breast cancer cells
T1 sequence (P03372 1-595): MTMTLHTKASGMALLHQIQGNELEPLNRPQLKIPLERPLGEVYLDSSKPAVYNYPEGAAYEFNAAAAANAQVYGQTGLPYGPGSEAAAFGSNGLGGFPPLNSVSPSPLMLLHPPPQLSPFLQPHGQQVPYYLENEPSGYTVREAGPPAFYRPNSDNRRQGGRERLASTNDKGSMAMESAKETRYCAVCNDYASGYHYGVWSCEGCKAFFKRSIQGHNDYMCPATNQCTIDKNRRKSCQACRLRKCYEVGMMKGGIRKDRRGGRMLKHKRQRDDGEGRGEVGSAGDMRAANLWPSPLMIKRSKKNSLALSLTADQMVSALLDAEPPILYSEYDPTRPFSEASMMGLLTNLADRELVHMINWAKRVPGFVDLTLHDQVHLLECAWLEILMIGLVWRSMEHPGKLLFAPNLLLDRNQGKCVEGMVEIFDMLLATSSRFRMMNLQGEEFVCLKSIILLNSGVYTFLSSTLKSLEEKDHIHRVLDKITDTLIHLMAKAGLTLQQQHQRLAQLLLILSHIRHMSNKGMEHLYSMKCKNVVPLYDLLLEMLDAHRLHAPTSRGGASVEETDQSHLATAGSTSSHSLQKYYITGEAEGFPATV
Briefly: Breast Cancer Cell ERa High Content Fluorescence Imaging Assay (F10). The format is cell-based. The following applies: 4 hours, plateau of the maximal effect, DMSO and 5 nM Fulvestrant define 0% and 100% changes in ESR1. Here is the method: Breast Cancer Cell ERa High Content Fluorescence Imaging Assay (F10)
Cell plates were incubated at 37° C., for 4 hours. Fixation and permeabilization were carried out using a Biotek EL406 plate washer and dispenser as follows. […] Samples were incubated 30 minutes. Well contents was aspirated and 50 ul/well of Phosphate Buffered Saline (PBS) containing 0.5% w/v bovine serum albumen, 0.5% v/v Triton X-100 (Antibody Dilution Buffer) was added to each well. Samples were incubated for 30 minutes. Well contents were aspirated and washed 3 times with 100 ul/well of PBS. Immunofluorescence staining of estrogen receptor alpha (ESR1) was carried out using a Biotek EL406 plate washer and dispenser as follows. […] Samples were incubated for 2 hours at room temperature. Samples were washed 4 times with 100 ul/well of PBS. […] Samples were incubated for 2 hours at room temperature. Samples were washed 3 times with 100 ul/well of PBS using a Biotek EL406. Quantitative fluorescence imaging of ESR1 was carried out using a Cellomics Arrayscan V (Thermo). […] Channel 1 (DNA stain) was used to define the nuclear region (Circ). […] Data analysis was carried out using Genedata Screener Software, with DMSO and 5 nM Fulvestrant treated samples being used to define the 0% and 100% changes in ESR1. The “Robust Fit” method was used to define the inflexion point of curve (EC50) and the plateau of the maximal effect (Sinf).
As for `CC1=C(c2ccc(F)c(C#N)c2)[C@H](c2ccc(OCCN3CC(CF)C3)cc2)Oc2ccc(O)cc21` [Example 35, (S)-2-fluoro-5-(2-(4-(2-(3-(fluoromethyl)azetidin-1-yl)ethoxy)phenyl)-6-hydroxy-4-methyl-2H-chromen-3-yl)benzonitrile], the “ER-alpha MCF7 HCS Sinf (%)” value is listed as −97%.
`CC1=C(c2cccc(Cl)c2)[C@@H](c2ccc(OCCN3CC(CF)C3)cc2)Oc2ccc(O)cc21` [Example 36, (R)-3-(3-chlorophenyl)-2-(4-(2-(3-(fluoromethyl)azetidin-1-yl)ethoxy)phenyl)-4-methyl-2H-chromen-6-ol]: the “ER-alpha MCF7 HCS Sinf (%)” value is recorded as −95%.
On to `CC1=C(c2cccc(Cl)c2)[C@H](c2ccc(OCCN3CC(CF)C3)cc2)Oc2ccc(O)cc21` [Example 37, (S)-3-(3-chlorophenyl)-2-(4-(2-(3-(fluoromethyl)azetidin-1-yl)ethoxy)phenyl)-4-methyl-2H-chromen-6-ol], for which the “ER-alpha MCF7 HCS Sinf (%)” value is given as −98%.
On to `CC1=C(c2ccc(F)cc2Cl)[C@@H](c2ccc(OCCN3CC(CF)C3)cc2)Oc2ccc(O)cc21` [Example 40, (2R)-3-(2-chloro-4-fluoro-phenyl)-2-[4-[2-[3-(fluoromethyl)azetidin-1-yl]ethoxy]phenyl]-4-methyl-2H-chromen-6-ol], for which the “ER-alpha MCF7 HCS Sinf (%)” value is recorded as −98%.
Consider `CC1=C(c2ccc(F)cc2Cl)[C@H](c2ccc(OCCN3CC(CF)C3)cc2)Oc2ccc(O)cc21` [Example 41, (2S)-3-(2-chloro-4-fluoro-phenyl)-2-[4-[2-[3-(fluoromethyl)azetidin-1-yl]ethoxy]phenyl]-4-methyl-2H-chromen-6-ol], for which the “ER-alpha MCF7 HCS Sinf (%)” value is −100%.
On to `CC1=C(c2cc(F)ccc2F)[C@@H](c2ccc(OCCN3CC(CF)C3)cc2)Oc2ccc(O)cc21` [Example 42, (2R)-3-(2,5-difluorophenyl)-2-[4-[2-[3-(fluoromethyl)azetidin-1-yl]ethoxy]phenyl]-4-methyl-2H-chromen-6-ol], for which the “ER-alpha MCF7 HCS Sinf (%)” value is on record as −94%.
To `CC1=C(c2cc(F)ccc2F)[C@H](c2ccc(OCCN3CC(CF)C3)cc2)Oc2ccc(O)cc21` [Example 43, (2S)-3-(2,5-difluorophenyl)-2-[4-[2-[3-(fluoromethyl)azetidin-1-yl]ethoxy]phenyl]-4-methyl-2H-chromen-6-ol] belongs −94%; to `COc1cc(C2=C(C)c3cc(O)ccc3OC2c2ccc(OCCN3CC(CF)C3)cc2)ccc1O` (centres unmarked) [Example 46, 2-(4-(2-(3-(fluoromethyl)azetidin-1-yl)ethoxy)phenyl)-3-(4-hydroxy-3-methoxyphenyl)-4-methyl-2H-chromen-6-ol], −98%.
